Experimental data published in patent US20250129102A1, “CRYSTAL FORM OF PYRIMIDINE HETEROCYCLIC COMPOUND AND PREPARATION METHOD THEREFOR” (D3 Bio (Wuxi) Co., Ltd., priority 2021, published 2025).

What was measured:
[1] = Pharmacokinetics of crystal form A by oral administration in SD rats; assay type: in vivo; settings: male, rat, plasma, 92.3 mg/kg, suspension in 0.5% methylcellulose
Experimental: Male SD rats aged 7 to 10 weeks were selected, and administered candidate compound solution orally. Whole blood was collected for a certain period of time, and prepared to obtain plasma. Drug concentration was analyzed by LC-MS/MS method, and pharmacokinetic parameters were calculated by Phoenix WinNonlin software (Pharsight, USA).

[2] = Pharmacokinetics by oral administration in beagle dogs; assay type: in vivo; settings: male, dog, plasma, 24.5 mg/kg, 0.5% methylcellulose
Experimental: 680.397 mg of assay compound powder was accurately weighed, and 50 mL of 0.500 methylcellulose (400 viscosity) aqueous solution was added. The mixture was stirred for 10 minutes, and sonicated for 10 minutes. 50 mL of 0.5% o methylcellulose (400 viscosity) aqueous solution was added, and homogenized for 10 minutes using a homogenizer. 11 mL of 0.5% o methylcellulose (400 viscosity) aqueous solution was added. The mixture was sonicated for 5 minutes and stirred for 10 minutes. 358 μL of 0.5% o methylcellulose (400 viscosity) aqueous solution was added and stirred for 2 minutes. Male beagle dogs aged over six months were selected, and administered candidate compound solution orally. Whole blood was collected for a certain period of time, and prepared to obtain plasma. Drug concentration was analyzed by LC-MS/MS method, and pharmacokinetic parameters were calculated by Phoenix WinNonlin software (Pharsight, USA). The results of the assay are shown in Table 14: […]

[3] = Solid stability assay of crystal form A (XRPD); assay type: physicochemical
Text: The sample was spread into a thin layer. For the samples placed under conditions of high temperature and high humidity, the vial mouth was sealed with aluminum foil, and some small holes were punched in the aluminum foil to ensure that the samples were fully in contact with the ambient air. For the samples placed under condition of strong light, the vial mouth was sealed with aluminum foil, and some small holes were punched in the aluminum foil. Samples placed under different conditions were sampled and tested (XRPD) on day 5 and day 10, respectively. The assay results were compared with the initial assay results on day 0.
Each medicinal low-density polyethylene bag was tied tightly with a tie, and then was placed into a single-layer aluminum foil bag. The single-layer aluminum foil bag was then heat-sealed. Finally, the samples were stored in plastic buckets and stored in a chamber with constant temperature and humidity. The packaging used in the stability assay simulated the material storage packaging. The material was divided into 1.5 g/package as stability samples under red light. Each sample was packaged in the same way and labeled with a stability sample label. The samples placed under different conditions were sampled and tested (XRPD) in the 3rd and 6th months. The assay results were compared with the initial assay results on day 0.

[4] = read-out: Area under the plasma concentration-time curve, AUC0-last
[5] = read-out: Peak concentration, Cmax

C=C(F)C(=O)N1CCN(c2nc(OC[C@@]34CCCN3C[C@H](F)C4)nc3c2CO[C@H](c2c(F)c(N)cc(C)c2C(F)(F)F)C3)C[C@@H]1CC#N
AUC(0-t) [1, 4]: 11.5 µM·h
Cmax [1, 5]: 1400 nM
Tmax ([1]; read-out: Time-to-peak, Tmax): 5.33 h
AUC(0-t) [2, 4]: 16.7 µM·h
Cmax [2, 5]: 2440 nM
Tmax ([2]; read-out: Time-to-peak, Tmax): 2.5 h
Crystal form ([3]; 25 ± 2° C./60 ± 5% relative humidity, 3 months): Crystal form A
Crystal form ([3]; 25 ± 2° C./60 ± 5% relative humidity, 6 months): Crystal form A
Crystal form ([3]; 40 ± 2° C./75 ± 5% relative humidity, 3 months): Crystal form A
Crystal form ([3]; 40 ± 2° C./75 ± 5% relative humidity, 6 months): Crystal form A
Crystal form ([3]; High humidity (25° C./relative humidity 92.5%, unsealed), 5 days): Crystal form A
Crystal form ([3]; High humidity (25° C./relative humidity 92.5%, unsealed), 10 days): Crystal form A
Crystal form ([3]; High temperature (60° C., unsealed), 5 days): Crystal form A
Crystal form ([3]; High temperature (60° C., unsealed), 10 days): Crystal form A
Crystal form ([3]; Light control, 5 days): Crystal form A
Crystal form ([3]; Light control, 10 days): Crystal form A
solid stability ([3]; high temperature, high humidity, strong light, long-term and accelerated experiments): good stability
Crystal form ([3]; initial, 0 day (XRPD)): Crystal form A
